Assay results from patent publication US20200323219A1, “BIOLOGICAL FUNGICIDE COMPOSED BY PLANT EXTRACTS” (JH Biotech Inc., priority 2019, published 2020).

Experiments:
[1] = test system: Alternaria brassicicola; settings: cited from earlier work
[2] = test system: Magnaporthe grisea (teleomorph: Pyricularia oryzae); settings: 1000 ppm; cited from earlier work
[3] = test system: Alternaria brassicicola; experiment: Conidial germination of Alternaria brassicicola on slides in a moist chamber; format: cell-based; settings: 24 hours; for Conidial germination rate (%) in different diluted condition 1000X: diluted 1000 times; for Conidial germination rate (%) in different diluted condition 1500X: diluted 1500 times; for Conidial germination rate (%) in different diluted condition 2000X: diluted 2000 times
Protocol: The tables differ only in how the gallnut and myrobalan are presented. For Table 1-1, gallnut and myrobalan are presented in vol % as described earlier for the Row 6 procedure while Table 1-2 presents the active ingredients of gallnut and myrobalan as concentration (grams/ml). One drop of 20 μl of pathogen conidia suspension (100 conidia per microliter) was mixed with one drop of 20 μl for each of the eight combinations of gallnut and myrobalan formulations, and at dilutions of 750 times, 1000 times, and 1500 times. Each combination was placed on test slides that were maintained at 100% relative humidity at room temperature. The germination rate of 100 conidia on each slide was calculated visually using a microscope following an incubation period of 24 hours. Tables 2-1 and 2-2 show the same plant extract formulations as in Table 1 but including the addition of a surfactant; specifically, either yucca plant extract (Yucca […]) or sodium lauryl sulfate (SLS). Each was added for testing conidial germinations of Alternaria brassicicola. Dilutions were at 1000 times, 1500 times and 2000 times water. 10 vol % of yucca extract or 5 wt. % of SLS was added to the formulations and then used to test the inhibitory effects on conidial germination on the same fungal pathogen Alternaria brassicicola.

[4] = test system: Acidovorax citrulli; settings: cited from earlier work
[5] = test system: Ralstonia solanacearum; settings: cited from earlier work
[6] = test system: Xanthomonas euvesicatoria; settings: cited from earlier work
[7] = Table 2-2, with surfactant (gms/ml per 100 ml)

Row | SMILES | inhibition of conidial germination [1] | conidial germination [2] | intrusive behavior of the germinated conidia [2] | Conidial germination rate (%) in different diluted condition 1000X ([3]; Table 2-1, with surfactant) | Conidial germination rate (%) in different diluted condition 1500X ([3]; Table 2-1, with surfactant) | Conidial germination rate (%) in different diluted condition 2000X ([3]; Table 2-1, with surfactant) | Conidial germination rate (%) in different diluted condition 1000X [3, 7] | Conidial germination rate (%) in different diluted condition 1500X [3, 7] | Conidial germination rate (%) in different diluted condition 2000X [3, 7] | kill or inhibit the pathogen [4] | kill or inhibit the pathogen [5] | kill or inhibit the pathogen [6]
1 | O=C(O)c1cc(O)c(O)c(O)c1 [gallic acid, 3,4,5-trihydroxybenzoic acid] | effectively inhibit | stop | stop | – | – | – | – | – | – | – | – | –
2 | CCCCCCCCCCCCOS(=O)(=O)[O-].[Na+] [sodium lauryl sulfate] | – | – | – | 55% | 90% | 94% | 55% | 90% | 94% | – | – | –
3 | COC(=O)c1cc(O)c(O)c(O)c1 [methyl gallate] | – | stop | stop | – | – | – | – | – | – | kill or inhibit | kill or inhibit | kill or inhibit
